Patent US20150208649A1, “NOVEL COMPOSITIONS COMPRISING P-HYDROXYBENZYLAMINE” (DSM IP ASSETS B.V., priority 2012, published 2015)
In brackets after ≈: the same amount, converted by molar mass. Blank lines part the entries; values can stand above or below the compound they belong to.

How the values were obtained:
Experiment in all cases: MIC, agar dilution method according to DIN 58 940
Format in all cases: cell-based
[1] = test system: Aspergillus brasiliensis (A. brasiliensis) ATCC 16404; conditions: for MIC mix: 78 h; for ratio [MIC (single)/(MIC (mixture)]): >1 indicates a synergistic effect; for MIC: Aspergillus brasiliensis, ATCC16404, single compound
Procedure: (§1) The antimicrobial activity was assessed by determination of the Minimum Inhibitory Concentration (MIC) using the agar dilution method according to DIN 58 940 at the Labor L+SAG, D-Bad Bocklet-Grossenbrach.
(§2) Culture plates with a diameter of 5.5 cm were prepared with fresh, kept liquid (50° C.) Mueller-Hinton Agar (double concentrated, Merck 1.05437)/aqua purificata comprising the compound/compound mixtures in the concentrations indicated in Table 1 according to standard methods. After solidifying and drying (about 1 h at 36° C.), the culture plates were inoculated with 1 μl of a suspension of the respective microorganism with the colony forming unit as outlined in table 1. The inoculated plates were then incubated at 36° C. The MIC's (i.e. the concentrations where still no growth could be observed) were determined after 18 h for E. coli, P. aeruginosa and S. aureus; after 48 h for P. acnes and after 78 h for A. brasiliensis and C. albicans. Per sample two culture plates were prepared. As control incubated and non-incubated cultures were used.
(§3) The suspensions of the microorganisms No. 1-4 were prepared by homogeneous suspension of 3-5 colonies of the same morphology in physiological NaCl-solution. The suspensions were adjusted such, that the haze corresponded to the Mac Farland standard 1.0 (about 3.0*10^8 KBE*/ml). For the preparation of the suspensions of the microorganisms 5 and 6, the microorganisms have been taken with a sterile swab and diluted in an amount of physiological NaCl solution such, that the haze corresponded to the Mac Farland standard 1.0. Afterwards the suspensions of the microorganisms 1 and 3-6 have been further diluted with physiological NaCl-solution in a ratio of 1:10. The colony count was determined using a spiral plater system (see table 2).

[2] = test system: Candida albicans (C. albicans) ATCC 10231; conditions: for MIC mix: 78 h; for ratio [MIC (single)/(MIC (mixture)]): >1 indicates a synergistic effect; for MIC: Candida albicans, ATCC10231, single compound
Procedure: as §1, §2, §3

[3] = test system: Escherichia coli (E. coli) ATCC 8739; conditions: for MIC mix: 18 h; for ratio [MIC (single)/(MIC (mixture)]): >1 indicates a synergistic effect; for MIC: Escherichia coli, ATCC8739, single compound
Procedure: as §1, §2, §3

[4] = test system: Propionibacterium acnes (P. acnes) ATCC 11828; conditions: for MIC: Cutibacterium acnes, ATCC11828, single compound; for MIC mix: 48 h; for ratio [MIC (single)/(MIC (mixture)]): >1 indicates a synergistic effect
Procedure: as §1, §2, §3

[5] = test system: Pseudomonas aeruginosa (P. aeruginosa) ATCC 9027; conditions: for MIC mix: 18 h; for ratio [MIC (single)/(MIC (mixture)]): >1 indicates a synergistic effect; for MIC: Pseudomonas aeruginosa, ATCC9027, single compound
Procedure: as §1, §2, §3

[6] = test system: Staphylococcus aureus (S. aureus) ATCC 6538; conditions: for MIC mix: 18 h; for ratio [MIC (single)/(MIC (mixture)]): >1 indicates a synergistic effect; for MIC: Staphylococcus aureus, ATCC6538, single compound
Procedure: as §1, §2, §3

[7] = concentration of the component in mixture pHBA/MI
[8] = single compound, 78 h at 36° C.
[9] = single compound, 18 h at 36° C.
[10] = concentration of the component in mixture pHBA/MP
[11] = concentration of the component in mixture pHBA/PE

SMILES: Cn1sccc1=O [MI, Methylisothiazolinone, reference compound]
MIC mix [1, 7]: 20 µg/mL (≈ 0.174 mM)
ratio [MIC (single)/(MIC (mixture)]) ([1]; mixture pHBA/MI): 1.50
MIC single [1, 8]: 30 µg/mL (≈ 0.261 mM)
MIC mix [2, 7]: 20 µg/mL (≈ 0.174 mM)
ratio [MIC (single)/(MIC (mixture)]) ([2]; mixture pHBA/MI): 1.50
MIC single [2, 8]: 30 µg/mL (≈ 0.261 mM)
MIC mix [3, 7]: 20 µg/mL (≈ 0.174 mM)
ratio [MIC (single)/(MIC (mixture)]) ([3]; mixture pHBA/MI): 1.00
MIC single [3, 9]: 20 µg/mL (≈ 0.174 mM)
MIC single ([4]; single compound, 48 h at 36° C.): 30 µg/mL (≈ 0.261 mM)
MIC mix [5, 7]: <10 µg/mL
ratio [MIC (single)/(MIC (mixture)]) ([5]; mixture pHBA/MI): >100
MIC single [5, 9]: 40 µg/mL (≈ 0.347 mM)
MIC mix [6, 7]: 40 µg/mL (≈ 0.347 mM)
ratio [MIC (single)/(MIC (mixture)]) ([6]; mixture pHBA/MI): 1.75
MIC single [6, 9]: 70 µg/mL (≈ 0.608 mM)

MIC ([1]; 78 h at 36° C.): 390 µg/mL (≈ 2.56 mM)
MIC mix [1, 10]: 260 µg/mL (≈ 1.71 mM)
ratio [MIC (single)/(MIC (mixture)]) ([1]; mixture pHBA/MP): 1.50
MIC ([2]; 78 h at 36° C.): 590 µg/mL (≈ 3.88 mM)
MIC mix [2, 10]: 390 µg/mL (≈ 2.56 mM)
ratio [MIC (single)/(MIC (mixture)]) ([2]; mixture pHBA/MP): 1.51
MIC ([3]; 18 h at 36° C.): 890 µg/mL (≈ 5.85 mM)
MIC mix [3, 10]: 390 µg/mL (≈ 2.56 mM)
ratio [MIC (single)/(MIC (mixture)]) ([3]; mixture pHBA/MP): 2.28
MIC ([4]; 48 h at 36° C.): 1330 µg/mL (≈ 8.74 mM)
MIC mix [4, 7]: <10 µg/mL
MIC mix [4, 10]: 890 µg/mL (≈ 5.85 mM)
ratio [MIC (single)/(MIC (mixture)]) ([4]; mixture pHBA/MI): >100
ratio [MIC (single)/(MIC (mixture)]) ([4]; mixture pHBA/MP): 1.49
MIC ([5]; 18 h at 36° C.): 2000 µg/mL (≈ 13.1 mM)
MIC mix [5, 10]: 590 µg/mL (≈ 3.88 mM)
ratio [MIC (single)/(MIC (mixture)]) ([5]; mixture pHBA/MP): 3.39
MIC ([6]; 18 h at 36° C.): 2000 µg/mL (≈ 13.1 mM)
MIC mix [6, 10]: 890 µg/mL (≈ 5.85 mM)
ratio [MIC (single)/(MIC (mixture)]) ([6]; mixture pHBA/MP): 2.25
SMILES: COC(=O)c1ccc(O)cc1 [MP, Methylparabene, reference compound]

MIC ([1]; 78 h at 36° C.): 5270 µg/mL (≈ 42.8 mM)
MIC mix [1, 7]: 980 µg/mL (≈ 7.96 mM)
MIC mix [1, 10]: 1050 µg/mL (≈ 8.53 mM)
MIC mix [1, 11]: 2340 µg/mL (≈ 19 mM)
ratio [MIC (single)/(MIC (mixture)]) ([1]; mixture pHBA/MI): 5.38
ratio [MIC (single)/(MIC (mixture)]) ([1]; mixture pHBA/MP): 5.02
ratio [MIC (single)/(MIC (mixture)]) ([1]; mixture pHBA/PE): 2.25
MIC ([2]; 78 h at 36° C.): 5270 µg/mL (≈ 42.8 mM)
MIC mix [2, 7]: 980 µg/mL (≈ 7.96 mM)
MIC mix [2, 10]: 1580 µg/mL (≈ 12.8 mM)
MIC mix [2, 11]: 2340 µg/mL (≈ 19 mM)
ratio [MIC (single)/(MIC (mixture)]) ([2]; mixture pHBA/MI): 5.38
ratio [MIC (single)/(MIC (mixture)]) ([2]; mixture pHBA/MP): 3.34
ratio [MIC (single)/(MIC (mixture)]) ([2]; mixture pHBA/PE): 2.25
MIC ([3]; 18 h at 36° C.): 5270 µg/mL (≈ 42.8 mM)
MIC mix [3, 7]: 980 µg/mL (≈ 7.96 mM)
MIC mix [3, 10]: 1580 µg/mL (≈ 12.8 mM)
MIC mix [3, 11]: 3510 µg/mL (≈ 28.5 mM)
ratio [MIC (single)/(MIC (mixture)]) ([3]; mixture pHBA/MI): 5.38
ratio [MIC (single)/(MIC (mixture)]) ([3]; mixture pHBA/MP): 3.34
ratio [MIC (single)/(MIC (mixture)]) ([3]; mixture pHBA/PE): 1.50
MIC ([4]; 48 h at 36° C.): 7900 µg/mL (≈ 64.1 mM)
MIC mix [4, 7]: 650 µg/mL (≈ 5.28 mM)
MIC mix [4, 10]: 3560 µg/mL (≈ 28.9 mM)
MIC mix [4, 11]: 5270 µg/mL (≈ 42.8 mM)
ratio [MIC (single)/(MIC (mixture)]) ([4]; mixture pHBA/MI): 12.15
ratio [MIC (single)/(MIC (mixture)]) ([4]; mixture pHBA/MP): 2.22
ratio [MIC (single)/(MIC (mixture)]) ([4]; mixture pHBA/PE): 1.50
MIC ([5]; 18 h at 36° C.): 5270 µg/mL (≈ 42.8 mM)
MIC mix [5, 7]: 650 µg/mL (≈ 5.28 mM)
MIC mix [5, 10]: 2400 µg/mL (≈ 19.5 mM)
MIC mix [5, 11]: 3510 µg/mL (≈ 28.5 mM)
ratio [MIC (single)/(MIC (mixture)]) ([5]; mixture pHBA/MI): 8.11
ratio [MIC (single)/(MIC (mixture)]) ([5]; mixture pHBA/MP): 2.20
ratio [MIC (single)/(MIC (mixture)]) ([5]; mixture pHBA/PE): 1.50
MIC ([6]; 18 h at 36° C.): 5270 µg/mL (≈ 42.8 mM)
MIC mix [6, 7]: 2200 µg/mL (≈ 17.9 mM)
MIC mix [6, 10]: 3560 µg/mL (≈ 28.9 mM)
MIC mix [6, 11]: 7900 µg/mL (≈ 64.1 mM)
ratio [MIC (single)/(MIC (mixture)]) ([6]; mixture pHBA/MI): 2.4
ratio [MIC (single)/(MIC (mixture)]) ([6]; mixture pHBA/MP): 1.48
ratio [MIC (single)/(MIC (mixture)]) ([6]; mixture pHBA/PE): 0.67
SMILES: NCc1ccc(O)cc1 [pHBA, p-Hydroxybenzylamine]
